Laboratory results taken from patent US9883691B2, “Food and beverage products containing 1,3-propanediol and methods of modifying flavor release using 1,3-propanediol” (Kraft Foods Group Brands LLC, priority 2012, dated 2018).
Entries after “also recorded” stand apart in the source; their conditions may differ.

How the values were obtained:
Assay type in all cases: physicochemical
[1] = PTR-MS headspace release with various non-aqueous liquids (diols) at 0.05:100 (Example 3); conditions: ratio 0.05:100; for PTR-MS headspace release in 1,3-butanediol: non-aqueous liquid 1,3-butanediol; for PTR-MS headspace release in 1,3-butanediol / PTR-MS headspace release in 1,3-propanediol / PTR-MS headspace release in 1,4-butanediol / PTR-MS headspace release in 1,7-heptanediol / PTR-MS headspace release in Propylene glycol: diluted in water; for PTR-MS headspace release in 1,3-propanediol: non-aqueous liquid 1,3-propanediol; for PTR-MS headspace release in 1,4-butanediol: non-aqueous liquid 1,4-butanediol; for PTR-MS headspace release in 1,7-heptanediol: non-aqueous liquid 1,7-heptanediol; for PTR-MS headspace release in Propylene glycol: non-aqueous liquid propylene glycol
Method: […]. The flavoring was then diluted in water for analysis. The final concentration of each compound was held constant at 8 ppm except furfuryl mercaptan was included at 1.6 ppm to maintain a constant flavor level in the resulting beverage while the non-aqueous liquid varied but the ratio of each compound to non-aqueous liquid was held constant at 0.05:100. A variety of non-aqueous liquids were evaluated, including 1,4-butandiol; 1,7-heptandiol; 1,3-butandiol, propylene glycol, and 1,3-propanediol.
Samples were analyzed by PTR-MS as described in Example 1.
Percent suppression was calculated by the following formula: (I1-3-diol−Ialternate diol)/Ialternate diol×100.

[2] = PTR-MS headspace release at various flavor compound to 1,3-propanediol or PG ratios (Example 2); conditions: for release suppressed in the presence of 1,3-propanediol: 10% cut-off for significant difference, relative to PG; for Percent Suppression by 1,3-propanediol: (IZ−IPG)/IPG×100
Method: The compounds listed below in Table 3 were added together to provide a liquid flavoring to analyze the role, if any, of the amount of 1,3-propanediol on flavor release. […] The amount of each flavor compound in the beverage was held constant at 8 ppm except furfuryl mercaptan was included at 1.6 ppm while the amount of propylene glycol or 1,3-propanediol varied.
The percent suppression was calculated using the following formula: (IZ−IPG)/IPG×100, where I is peak height, “Z” is 1,3-propanediol and “PG” is propylene glycol.

[3] = PTR-MS headspace release from stored beverages, water/solvent experiment (Example 4); conditions: beverage stored refrigerated; 1.5, 24, 48 and 72 hours; Tukey-Kramer
Method: 0.86 grams of the flavor concentrate was then added to 100 grams of either propylene glycol or 1,3-propanediol to provide diluted concentrates. […].
The beverages were then stored in sealed containers in a refrigerator. The container was opened five times over the course of the experiment and therefore represented a beverage in a sealed container being opened for multiple uses. 15 gram samples were weighed into a 4 ounce cup and analyzed at 1.5 hours, 24 hours, 48 hours, and 72 hours after storage.
The samples were analyzed in triplicate by PTR-MS as described below to determine impact of 1,3-propanediol or propylene glycol on release of the flavors from the beverage. The PTR-MS was performed as follows. A sampling apparatus was needed in conjunction with the PTR-MS inlet to prevent variations caused by headspace kinetics. The sampling apparatus used includes a 4 ounce sample vessel equipped with a 2-hole lid which may be sealed by an adhesive film to allow equilibration. […]. The holes were equal sized (˜2 mm diameter) and match the outer diameter of the PTR-MS inlet line. The flow of the dilution gas into the vessel was regulated by the vacuum and proportional valve of the PTR-MS inlet system. […] The 2 holes in the lid were equidistant from the edge of the vessel (˜20 mm) and ˜30 mm from each other. The PTR-MS inlet was braced by clamps in a fixed position vertically above the laboratory bench (˜55 mm) and a silicone rubber depth gauge was affixed to the PTR-MS inlet tubing and set at 18 mm. The PTR-MS inlet was consistently oriented in a vertical position […] below the inside lid of the vessel and 19 mm above the sample in the vessel. The sample vessel was then held in place during sampling according to the depth gauge on the inlet line and the vessel was subsequently supported on the bench by a 10 mm plastic spacer.
15 grams of the sample to be tested (e.g., food or beverage product containing 1,3-propanediol) are added to the vessel and the vessel is sealed and allowed to equilibrate at room temperature (˜22° C.) for 90 minutes. At the time of sampling, the seal was removed from both the sampling hole and the dilution gas hole in the lid and the vessel was immediately affixed to the PTR-MS inlet via the sampling hole. The real-time released flavor was measured from the headspace of the sample vessel for two minutes (according to the conditions listed in Table 1 above).
The data was analyzed using PTR-MS Viewer, Version 3.0.0.101 (Ionicon Analytik G.m.b.H). The point of maximum intensity for each compound of interest was determined and recorded according to the PTR-MS Viewer software. The maximum intensity in counts over the timescale for each compound of interest was used for data analysis as it reflected the static equilibrium headspace concentration in the system at the moment of seal removal. Due to the necessity of a dilution gas, the volatile concentration decreased over time as the compounds of interest re-equilibrated to a state of dynamic equilibrium in the headspace.
The statistical differences were determined by Tukey-Kramer Honest […]. […].

[4] = PTR-MS headspace release in neat solvent, solvent/solvent experiment (Example 5); design: key to Release Differences: “Z” indicates that 1,3-propanediol had higher equilibrium maximum (meaning more of the flavor was released in 1,3-propanediol); “P” indicates that propylene glycol had higher equilibrium maximum; “-” indicates no statistical difference (95% significance) between the two samples; conditions: 1.5 hrs equilibration; for Release Differences: 1,3-propanediol versus propylene glycol as sole solvent, 95% significance
Method: […]. Then the head space was analyzed as described above.
0.86 grams of the concentrate was added to 100 grams of either propylene glycol or 1,3-propanediol to provide a 1,3-propanediol diluted concentrate or propylene glycol diluted concentrate. The diluted concentrates were then further diluted as outlined in Table 10 below.
A 15 gram sample was weighed into a 4 oz vessel and analyzed at 1.5 hrs. of equilibration time as described in the method of Example 4.

[5] = flavor/1,3-propanediol ratio of 0.05:100
[6] = ratio 0.005:100, negative = suppressed vs PG

| Compound | PTR-MS headspace release in 1,3-butanediol [1] | PTR-MS headspace release in 1,3-propanediol [1] | PTR-MS headspace release in 1,4-butanediol [1] | PTR-MS headspace release in 1,7-heptanediol [1] | PTR-MS headspace release in Propylene glycol [1] | Percent suppression by 1,3-butanediol relative to 1,4-butanediol [1] [%] | release suppressed in the presence of 1,3-propanediol [2] | effect of 1,3-propanediol on release [2, 5] | Percent Suppression by 1,3-propanediol [2, 6] [%] | Percent Suppression by 1,3-propanediol ([2]; ratio 0.05:100) [%] | Percent Suppression by 1,3-propanediol ([2]; ratio 5:100) [%] | Percent Suppression by 1,3-propanediol ([2]; ratio 15:100) [%] | effect of 1,3-propanediol on flavor release relative to propylene glycol, water/solvent [3] | Release Differences [4] | effect of 1,3-propanediol on release ([2]; flavor to 1,3-propanediol ratio of about 0.005:100 to 15:100) | effect of 1,3-propanediol on release ([2]; ratio 0.005:100) | release in 1,3-propanediol versus propylene glycol, solvent/solvent [4] |
| --- | --- | --- | --- | --- | --- | --- | --- | --- | --- | --- | --- | --- | --- | --- | --- | --- | --- |
| CCCCCCCCCC(=O)OCC [Ethyl decanoate] | 117.0 | 23.9 | 258.0 | 131.3 | 16.84 | −120.5 | – | – | −2.0 | 41.9 | 17.8 | −12.4 | little effect | – | – | – | – |
| SCc1ccco1 [Furfuryl mercaptan] | 1.3 | 0.55 | 0.3 | 2.1 | 0.51 | 73.9 | – | – | 31.8 | 7.8 | 15.9 | −13.1 | significantly increase the rate of release | – | – | – | – |
| C=C(C)[C@H]1CC=C(C)CC1 [Limonene] | 13.5 | 4.9 | 59.7 | 59.5 | 6.55 | −343.5 | suppressed | – | −0.1 | −25.2 | −34.8 | 23.5 | little effect; also recorded: no significant difference | Z | – | – | released faster in 1,3-propanediol |
| CCCCCCCC=O [Octanal] | 42.9 | 10.70 | 56.0 | 67.0 | 11.95 | −30.5 | – | – | 2.6 | −10.5 | −21.1 | −2.5 | significantly suppressed release | – | – | – | – |
| CCCCCCCCO [Octanol] | 4.0 | 1.05 | 5.1 | 6.2 | 1.19 | −27.5 | – | – | 8.5 | −11.4 | −19.1 | −0.6 | significantly suppressed release; also recorded: released faster in propylene glycol | P | – | – | no significant difference |
| Cc1nc(C)c(C)nc1C [Tetramethyl pyrazine] | 12.3 | 9.89 | 20.5 | 22.0 | 17.85 | −67.3 | suppressed | significant suppression effect | 10.2 | −44.6 | −17.8 | −5.6 | little effect | Z | – | – | – |

Second part, the compound after the results:

| PTR-MS headspace release in 1,3-butanediol [1] | PTR-MS headspace release in 1,3-propanediol [1] | PTR-MS headspace release in 1,4-butanediol [1] | PTR-MS headspace release in 1,7-heptanediol [1] | PTR-MS headspace release in Propylene glycol [1] | Percent suppression by 1,3-butanediol relative to 1,4-butanediol [1] [%] | release suppressed in the presence of 1,3-propanediol [2] | effect of 1,3-propanediol on release [2, 5] | Percent Suppression by 1,3-propanediol [2, 6] [%] | Percent Suppression by 1,3-propanediol ([2]; ratio 0.05:100) [%] | Percent Suppression by 1,3-propanediol ([2]; ratio 5:100) [%] | Percent Suppression by 1,3-propanediol ([2]; ratio 15:100) [%] | effect of 1,3-propanediol on flavor release relative to propylene glycol, water/solvent [3] | Release Differences [4] | effect of 1,3-propanediol on release ([2]; flavor to 1,3-propanediol ratio of about 0.005:100 to 15:100) | effect of 1,3-propanediol on release ([2]; ratio 0.005:100) | release in 1,3-propanediol versus propylene glycol, solvent/solvent [4] | Compound |
| --- | --- | --- | --- | --- | --- | --- | --- | --- | --- | --- | --- | --- | --- | --- | --- | --- | --- |
| 16.9 | 9.90 | 15.6 | 13.4 | 13.70 | 8.0 | suppressed | significant suppression effect | −0.5 | −27.7 | −1.7 | −9.0 | little effect | P | – | – | – | CC(=O)O [Acetic acid] |
| 6.0 | 5.83 | 13.5 | 24.3 | 18.80 | −124.2 | suppressed | – | −70.0 | −69.0 | −45.4 | −58.2 | significantly suppressed release | – | significant suppression effect | still suppressed | – | CC(C)=CCCC(C)=CC=O [Citral, 3,7-dimethyl-2,6-octadienal] |
| 28.4 | 18.95 | 39.9 | 36.2 | 36.50 | −40.3 | suppressed | significant suppression effect | −3.4 | −48.1 | −19.9 | 0.2 | significantly suppressed release | – | – | – | – | COc1ccccc1O [Guaiacol] |
